Assay results published in the supplement of paper PMC8617591.

Columns and labels:
[1] = system: Mycobacterium tuberculosis Erdman (autoluminescent); test: FIC90 (Loewe) at 90% inhibition (log2); higher = more antagonistic
Protocol: (§1)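 DiaMOND equipotent two-drug combination dose responses against autoluminescent M. tuberculosis Erdman in 8 in vitro models. Read-out is OD600, or luminescence for the intracellular and dormancy models, normalised to untreated wells. Hill-fit Einf, AUC25 and GRinf are potency metrics; FIC50 and FIC90 are Loewe-additivity fractional inhibitory concentrations, given as log2 (negative = synergy). Replicates are averaged.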

[2] = system: Mycobacterium tuberculosis Erdman (autoluminescent); test: AUC25, normalised area under dose response up to IC25 (fraction (0-1)); higher = more potent at low dose
Protocol: as §1

[3] = system: Mycobacterium tuberculosis Erdman (autoluminescent); test: Einf, fitted maximum growth inhibition of combination (fraction); higher = stronger maximal inhibition
Protocol: as §1

[4] = system: Mycobacterium tuberculosis Erdman (autoluminescent); test: FIC50 (Loewe) at 50% inhibition (log2); higher = more antagonistic
Protocol: as §1

[5] = system: Mycobacterium tuberculosis Erdman (autoluminescent); test: GRinf, maximum normalised growth rate inhibition (unitless (-1 to 1)); higher = less effect (negative = killing)
Protocol: as §1

NC(=O)c1cnccn1 [pyrazinamide] + CO[C@H]1/C=C/O[C@@]2(C)Oc3c(C)c(O)c4c(O)c(c(/C=N/N5CCN(C)CC5)c(O)c4c3C2=O)NC(=O)/C(C)=C\C=C\[C@H](C)[C@H](O)[C@@H](C)[C@@H](O)[C@@H](C)[C@H](OC(C)=O)[C@@H]1C [rifampicin]
Settings	AUC25, [2]	Einf, [3]	FIC50, [4]	FIC90, [1]	GRinf, [5]
in vitro model: acidic pH 5.7, time point: constant (~7 days, model-specific)	0.0773	0.932	-0.484	–	-0.451
in vitro model: acidic pH 5.7, time point: terminal (~4-5 doublings, model-specific)	0.0598	0.992	-0.21	-1.3	-0.278
in vitro model: intracellular J774, time point: constant = terminal	–	0.989	–	-0.135	-0.472

Settings	AUC25, [2]	Einf, [3]	FIC50, [4]	FIC90, [1]	GRinf, [5]
in vitro model: butyrate, time point: constant (~7 days, model-specific)	0.121	0.839	0.347	–	0.188
in vitro model: butyrate, time point: terminal (~4-5 doublings, model-specific)	0.118	0.915	0.398	2.41	0.216
in vitro model: cholesterol 0.05 mM, time point: constant (~7 days, model-specific)	0.128	0.607	–	–	0.0467
in vitro model: cholesterol 0.05 mM, time point: terminal (~4-5 doublings, model-specific)	0.101	0.887	0.59	–	-0.0969
in vitro model: cholesterol-high 0.2 mM, time point: constant (~7 days, model-specific)	0.0909	0.91	1.2	–	-0.177
in vitro model: cholesterol-high 0.2 mM, time point: terminal (~4-5 doublings, model-specific)	0.095	1	1.54	1.5	-0.819
in vitro model: dormancy (butyrate + nitrate, low O2), time point: constant (~7 days, model-specific)	0.105	0.9	-0.268	0.25	0.249
in vitro model: dormancy (butyrate + nitrate, low O2), time point: terminal (~4-5 doublings, model-specific)	0.0706	0.983	-0.19	0.408	-0.179
in vitro model: standard 7H9 glycerol, time point: constant = terminal	0.0562	0.896	-0.199	–	0.144
in vitro model: valerate, time point: constant (~7 days, model-specific)	0.054	0.761	0.449	–	0.201
in vitro model: valerate, time point: terminal (~4-5 doublings, model-specific)	0.0277	0.903	0.477	0.361	0.149

CC[C@@H](CO)NCCN[C@@H](CC)CO [ethambutol] + CO[C@H]1/C=C/O[C@@]2(C)Oc3c(C)c(O)c4c(O)c(c(/C=N/N5CCN(C)CC5)c(O)c4c3C2=O)NC(=O)/C(C)=C\C=C\[C@H](C)[C@H](O)[C@@H](C)[C@@H](O)[C@@H](C)[C@H](OC(C)=O)[C@@H]1C [rifampicin]
Settings	AUC25, [2]	Einf, [3]	FIC50, [4]	FIC90, [1]	GRinf, [5]
in vitro model: acidic pH 5.7, time point: constant (~7 days, model-specific)	0.0993	0.914	-0.394	–	-0.41
in vitro model: acidic pH 5.7, time point: terminal (~4-5 doublings, model-specific)	0.0298	0.979	0.0255	-0.711	-0.247
in vitro model: intracellular J774, time point: constant = terminal	–	0.967	–	-2.96	-0.274

Settings	AUC25, [2]	Einf, [3]	FIC50, [4]	FIC90, [1]	GRinf, [5]
in vitro model: butyrate, time point: constant (~7 days, model-specific)	0.0748	0.918	0.144	–	-0.00723
in vitro model: butyrate, time point: terminal (~4-5 doublings, model-specific)	0.0614	0.965	0.0567	-0.897	-0.02
in vitro model: cholesterol 0.05 mM, time point: constant (~7 days, model-specific)	0.0842	0.701	-0.298	–	-0.173
in vitro model: cholesterol 0.05 mM, time point: terminal (~4-5 doublings, model-specific)	0.0953	0.887	0.234	–	-0.127
in vitro model: cholesterol-high 0.2 mM, time point: constant (~7 days, model-specific)	0.029	0.952	0.64	–	-0.414
in vitro model: cholesterol-high 0.2 mM, time point: terminal (~4-5 doublings, model-specific)	0.0647	0.996	0.607	0.842	-0.635
in vitro model: dormancy (butyrate + nitrate, low O2), time point: constant (~7 days, model-specific)	0.0667	0.847	-0.0202	–	0.407
in vitro model: dormancy (butyrate + nitrate, low O2), time point: terminal (~4-5 doublings, model-specific)	0.067	0.988	0.236	-0.513	-0.164
in vitro model: standard 7H9 glycerol, time point: constant = terminal	0.0324	0.894	-0.0789	–	0.143
in vitro model: valerate, time point: constant (~7 days, model-specific)	0.0519	0.845	-0.00587	–	0.0704
in vitro model: valerate, time point: terminal (~4-5 doublings, model-specific)	0.0294	0.933	0.0274	-1.32	0.0354
